US11229665B2, “Compound of glycosaminoglycan and its fabrication method as well as application” (Holy Stone Healthcare Co., Ltd., priority 2013, dated 2022)

Columns and labels:
[1] = Adhesion of fluorescent HA (HA-f) in colon tissue (IVIS image system); design: species or system SD-rat (Sprague-Dawley Rat); conditions: 0.5% HA-f, 2 hours
Description: 1. 0.25 g high molecule weight sodium hyaluronate powder (HHA; Mw: 2 MDa; Freda) and 0.25 g low molecule weight sodium hyaluronate powder (LHA; Mw: 0.35 MDa; Freda) were added into 50 ml PBS buffer (Phosphate buffered saline) respectively to form 0.5% solution, and then stirred for 6 hours until the powder was totally dissolved. 0.25 g medium molecule weight sodium hyaluronate powder (MHA; Mw: 1 MDa; Freda) was added into 50 ml PBS buffer, and then stirred for 6 hours until the powder was totally dissolved and ready for use in the following steps.
2. Fluorescent HA (HA-f) was prepared by (1) 0.39 g MES free acid (2-(N-morpholino) ethanesulfonic acid, Calbiochem) and was dissolved in 100 ml dd water. (2) Solution A: 65 mg fluroresceinamine powder, (isomer I, Fluka) was dissolved in 9 ml 95% EtOH solution and then stirred for 10 minutes under a condition that light was prohibited. […] (8) The product after reaction was poured into a dialysis tubing (MW: 12000˜14000) in 5 L dd water as a dialysis solution and then stirred for 5 days at 4° C. under a condition that light was prohibited with dialysis solution being changed every 12 hours until the dialysis solution had no fluorescence. […]
7. All values are calculated as means of n observations. The histological index was analyzed by Student's t-test.

HT29 cells = assay: In vitro cytotoxicity (MTT cell viability); format: cell-based, human; conditions: 24 hours
Description: HT29 cells were seeded at low density of 1×10^4 cells per well in 96 well-plates in medium containing high glucose DMEM, 10% FBS, 1% sodium pyruvate, 1% Penicillin, Streptomycin, and Neomycin.
(§1) Drug effect on cellular viability was evaluated using an assay based on the cleavage of the yellow dye 3-(4, 5-dimethyl-2-thiazolyl)-2, 5-diphenyl-2H-tetrazolium bromide (MTT) to purple formazan crystals by dehydrogenase activity in mitochondria.
(§2) After drug treatment for 24 hours, medium was removed and cell layers were rinsed with medium following MTT diluted (0.5 mg/ml) in medium for 4 hours at 37° C. incubator (5% CO2).
(§3) The cells were then added with 100 μl/well DMSO and the optical density of the cellular homogenate was measured at 570 nm using ELISA reader.
(§4) The fraction of live cells was calculated by dividing the mean optical density obtained from treated cells by the mean optical density from untreated control cells.
(§5) After drug treatment for 24 hr, medium was removed and cell layers were rinsed with medium following MTT diluted (0.5 mg/ml) in medium for 4 hours at 37° C. incubator (5% CO2).
Drug effect on cellular viability was evaluated using an assay based on the cleavage of the yellow dye 3-(4,5-dimethyl-2-thiazolyl)-2,5-diphenyl-2H-tetrazolium bromide (MTT) to purple formazan crystals by dehydrogenase activity in mitochondria.

HCT15 cells = assay: In vitro cytotoxicity (MTT cell viability); format: cell-based, human; conditions: 24 hours
Description: HCT15 cells were seeded at low density of 1×10^4 cells per well in 96 well-plates in medium containing DMEM/F12, 10% FBS, 1% sodium pyruvate, 1% Penicillin, Streptomycin, and Neomycin.
as §1, §2, §3, §4, §5

[2] = Body weight in xenograft nude mice model; format: in vivo, BALB/c athymic (nu+/nu+) mice; conditions: HT29 xenograft mice; 1.5 mg/kg Nimesulide or equivalent, tail vein, within 24 days
Description: 3. Tumor sizes and body weight were measured every 3 or 5 days for the duration of the experiment.
6. Mice were administered via tail vein injections at doses of Nimesulide (1.5 mg/kg), HA-Nimesulide (equivalent to 1.5 mg/kg of Nimesulide) or PBS respectively with an interval of 48 or 72 hours.
7. The tumor size and change in body weight of each mouse were recorded.

[3] = Lenalidomide series, 3.125-400 μM
[4] = Nimesulide series, 3.125-200 μM

sodium hyaluronate [350 KDa HA]
fluorescent index of adhesion ([1]; injured colon tissues, normal colon tissue defined as 1): obviously higher than HAs of the other two average molecular weights

Nc1cccc2c1CN(C1CCC(=O)NC1=O)C2=O (stereo not shown) [Lenalidomide]
cytotoxicity effect (cell viability, MTT) (HT29 cells; [3]): almost the same in both cell lines
cytotoxicity effect (cell viability, MTT) (HCT15 cells; [3]): almost the same in both cell lines

CS(=O)(=O)Nc1ccc([N+](=O)[O-])cc1Oc1ccccc1 [NiNO2, Nimesulide]
cytotoxicity effect (cell viability, MTT) (HT29 cells; [4]): generally better than modified production
average body weight [2]: almost the same
cytotoxicity effect (cell viability, MTT) (HCT15 cells; [4]): generally better than modified production

sodium hyaluronate [1 MDa HA]
fluorescent index of adhesion ([1]; normal or injured colon tissues): higher than 2 MDa HA
